Data: US20150190479A1, “DELIVERY OF CHOLESTERYL ESTER TO STEROIDOGENIC TISSUES” (ALPHACORE PHARMA, LLC, priority 2010, published 2015)

B1: lecithin-cholesterol acyltransferase (protein, UniProt P04180 25-440, looked up)
Phosphatidylcholine-sterol …: FWLLNVLFPPHTTPKAELSNHTRPVILVPGCLGNQLEAKLDKPDVVNWMCYRKTEDFFTIWLDLNMFLPLGVDCWIDNTRVVYNRSSGLVSNAPGVQIRVPGFGKTYSVEYLDSSKLAGYLHTLVQNLVNNGYVRDETVRAAPYDWRLEPGQQEEYYRKLAGLVEEMHAAYGKPVFLIGHSLGCLHLLYFLLRQPQAWKDRFIDGFISLGAPWGGSIKPMLVLASGDNQGIPIMSSIKLKEEQRITTTSPWMFPSRMAWPEDHVFISTPSFNYTGRDFQRFFADLHFEEGWYMWLQSRDLLAGLPAPGVEVYCLYGVGLPTPRTYIYDHGFPYTDPVGVLYEDGDDTVATRSTELCGLWQGRQPQPVHLLPLHGIQHLNMVFSNLTLEHINAILLGAYRQGPPASPTASPEPPPPE
notes: enzyme

Experiments:
Format in all cases: in vivo, human
[1] = Adrenal function of a trauma patient under treatment; conditions: car accident victim; combination of 150 mg/day anacetrapib and LCAT injection (40 mg) every 5 days
Excerpt: The efficacy of a particular dose may be assessed by reference noting the change in HDL-C or improvement in certain physiologic parameters. Suitable physiologic parameters include, but are not limited to, improved cortisol response to ACTH, improved cortisol levels, change in circulating levels of steroids, e.g., corticosteroids, glucocorticoids, cortisol, testosterone, estrogen, decreased inflammatory cytokines, and improved liver function.
A victim of a car accident with abdominal injuries is brought to the hospital. Their HDL is 55 mg/dl. As HDL routinely falls after trauma, the physician prescribes 150 mg/day anacetrapib and an injection of LCAT (40 mg) every 5 days until the patient is fully stabilized. This treatment maintained the patient's HDL at >75 mg/dl throughout their recovery. Adrenal function was maintained.

[2] = Testosterone level and complaints of a patient with low testosterone; conditions: HDL-C 25 mg/dl, 150 mg/day
Experimental: A patient complains of lethargy and impotence. Their testosterone levels are low, and their HDL-C is 25 mg/dl. The physician prescribes ancetrapib at a dose of 150 mg/day. […] The patient's original complaints are absent.

[3] = HDL-C level of a patient after treatment (illustrative patient examples); conditions: patient admitted for major surgery, HDL-C 25 mg/dl at admission; LCAT 40 mg given 24 hours prior to surgery
Excerpt: Measurement of biomarker levels and parameters described above may be measured using methods that are well known in the art. For example, change in HDL-CE level is easily detected with standard clinical laboratory procedures. Likewise, measuring the adrenal response to ACTH is commonly used in patients with suspected adrenal insufficiency. One of ordinary skill in the art would understand the significance of the results and may choose to adjust the dose based on assessments such as those described above.
A patient is admitted into the hospital for major surgery. The patients HDL-C level is 25 mg/dl. […] The patient is administered a dose of LCAT of 40 mg 24 hours prior to surgery. The patient's HDL-C is measured prior to surgery, and is now above 50 mg/di, thus greatly reducing risk of infection and/or death following the procedure.
A burn victim is stabilized in the hospital with an HDL-C level of 12 mg/dl. […] The patient is infused with rHDL at a dose of 25 mg/kg over a period of 5 hours, raising the patient's HDL-C by 50 mg/dl. In order to maintain this level of HDL, the patient is administered a 60 mg dose of LCAT. Cortisol levels are monitored periodically to determine if the adrenal function is normalized. […]
A patient is beginning to enter septic shock. […] Cortisol levels are monitored to determine if the adrenal function is normalized. […]

Molecule | adrenal function [1] | patient's original complaints (lethargy and impotence) [2] | testosterone level on recheck ([2]; rechecked 'For weeks later') | patient's HDL-C measured prior to surgery [3]
COc1cc(F)c(C(C)C)cc1-c1ccc(C(F)(F)F)cc1CN1C(=O)O[C@H](c2cc(C(F)(F)F)cc(C(F)(F)F)c2)[C@@H]1C [anacetrapib] | maintained | absent | within normal levels | –
B1 | maintained | – | – | above 50 mg/di
